Data set [1] in a line: Salt Screen #4: compatibility (CMP) in sweetened cold-brewed coffee and tea. Format: in vivo. The note with it: sweetener compositions in cold-brewed coffee and tea, pH-sensitive flavors. Here is the method:
The fourth salt screen that was employed tested whether each electrolyte salt could enhance the sweetener compositions used to sweeten cold-brewed coffee and tea without disturbing the flavors of these pH-sensitive beverages. The disturbance of pH-sensitive flavors is an important screen because many electrolyte salts influence the pH of the beverages to which they are added. This screen was only applied to the five electrolyte salts that passed the three earlier salt screens.

Data set [2] can be described thus: Salt Screen #2: thick and heavy flavor before unpleasant off-flavor (taste, TAS). Format: in vivo. The source says:
The second salt screen that was employed tested whether each electrolyte salt could elicit a thick and heavy flavor before it elicited an unpleasant off-flavor, such as saltiness, bitterness, or chalkiness.

For data set [3] the following is noted: in sweetener compositions exposed to ambient air (hygroscopicity). The source says:
The third salt screen that was employed tested whether each electrolyte salt could enhance the flavor of sweetener compositions and remain shelf stable when exposed to ambient air. This screen is related to the water solubility of the salt. When salts have too much water solubility, they can become hygroscopic which means they absorb water from ambient air. Hygroscopic salts become wet and clumpy when exposed to ambient air, and they cause sweetener compositions containing them to become difficult to package and dispense because of this instability to air exposure.
This third salt screen is complementary to the first salt screen because it identifies salts with too much water solubility, while the first salt screen identifies salts with too little water solubility.

Data set [4] is described as follows: Sugar-like flavor judged by taste judges in water versus 10% or 20% sucrose (taste, intensity, thickness, total). Type of data set: in vivo. The following applies: for improvement in sugar-like flavor: at optimal dose or ratio, versus starting composition without the added ingredient (zero mg/L; pure S1); for optimal level for sugar-like flavor: potassium in 1300 mg/L HPS, sodium in 1300 mg/L HPS + 200 mg/L potassium. The source says: The compositions and methods that embody this invention describe how to form electrolyte-enhanced sweetener compositions that better reproduce the flavor of natural sugar with negligible calories and with favorable physical properties. According to these methods, sugar-like flavor was defined by the numerical consensus of four criteria which were sugar-like taste, intensity, thickness, and compatibility and will be described below.
The four criteria were quantified numerically as four percentile scores. Scores of 100% represented the complete and satisfying reproduction of each criterion of sugar-like flavor. For reference, naturally-refined cane sugar received percentile scores of 100% across all criteria because of how the criteria were defined.
Taste (TAS) The criterion of sugar-like taste encompasses how well a sweetener reproduces the taste of sugar at a high level of sweetness corresponding to a 10% sucrose solution. Ten percent sucrose is equivalent to a 12-ounce soft drink (355 milliliters) sweetened with 36 grams of sucrose. For reference, the sweet taste of sugar develops and recedes across the entire tongue with each tasting in a characteristic way. The time profile of sugar's sweetness is something we generally take for granted until we taste a sweetener with a different time profile that makes it taste unnatural and unsatisfying.
According to a preferred embodiment of this invention, the tastes of sweetener compositions (TAS) were compared to 10% sucrose and evaluated based on the following taste and olfactory flavor properties: • 1. Sweetness across the entire tongue and not in throat; • 2. Rapid onset of sweetness without delay; • 3. Rapid decay of sweetness without lingering after-taste; • 4. Sweetness without bitterness; • 5. Subtle caramel flavor without off-flavors.
Intensity (INT) The criterion of sugar-like intensity represents how well a sweetener reproduces the same five taste properties of sugar (represented by TAS) but at a very high level of sweetness typical in desserts. Drinking water sweetened with 20% sucrose is used as a taste reference for evaluating INT.
Thickness (THK) The criterion of sugar-like thickness represents how well a sweetener reproduces the thick texture of sugar-sweetening that becomes syrupy at higher dose levels. Drinking water samples sweetened with 10% sucrose and with 20% sucrose are used as taste references for evaluating THK.
Total (TOT) The consensus of the percentile scores for the four criteria was determined by numerical averaging to form a total score of sugar-like flavor.
The first three criteria for sugar-like flavor—taste TAS, intensity INT, and thickness THK—were evaluated by taste judges who compared water sweetened to a level of either 10% or 20% sucrose to water sweetened with various sweetener compositions. A level of 10% sucrose represents the sweetness of typical soft drinks and 20% sucrose represents the sweetness of typical desserts.
Taste judges initially evaluated the sugar-like taste TAS and thickness THK of sweetener compositions at the sweetness level of typical soft drinks. They rinsed their mouths with plain water and then evaluated a 100 mL sample of 10% sucrose solution. They took a 15 mL aliquot of the sample into the mouth and swished it around for about 15 seconds. For each mouthful, they evaluated the time course of sweetness onset and decay, natural sugar flavors, off-flavors, and thickness, and they expelled the aliquot into a waste receptacle. Judges continued taking a series of mouthfuls up to a total volume of 100 mL to evaluate the changes in flavor perception from one mouthful to the next related to the natural loss of perceived sweetness, flavor, and thickness of sugar solutions. This protocol was then repeated for each 100 mL sample of spring water sweetened with various sweetener compositions. […]

Data set [5] is described as follows: Carbohydrate screen: flavor at strength of 10% sucrose in water, and mixed with the sweetener composition. Format: in vivo. The note with it: dissolved into one liter of water to a strength of 10% sucrose. Here is the method:
Natural sugars and sugar alcohols were screened from commercial sources as candidates for the carbohydrate composition. Refined and unrefined cane sugar, brown sugar, cane juice sugar, maple sugar, coconut sugar, glucose, fructose, and erythritol were dissolved into one liter of water to a strength of 10% sucrose and evaluated for flavor.
Both refined and unrefined cane sugar solutions were mixed with solutions containing the sweetener composition mixed to a strength of 10% sucrose.

For data set [6] the following is noted: cool drinking water, without lengthy stirring or heating. The source says:
The first salt screen that was employed tested whether each electrolyte salt had sufficient water solubility. The screen tested whether each salt could dissolve sufficiently into cool drinking water and […] without the need for lengthy stirring or heating.

Setting [7] is: thick and heavy flavor before saltiness, bitterness or chalkiness.

“Also recorded” adds a separate entry of the source.

As to `CC(O)C(=O)[O-].CC(O)C(=O)[O-].[Ca+2]` (stereo not shown) [Calcium Lactate, calcium lactate], the “Does the Electrolyte Salt have Suitable Compatibility (CMP)?” value was “NO, Develops sour/chalky flavor” in data set [1]; “sour and chalky” in data set [1] (listed as calcium lactate). For the same molecule, in data set [2] (setting [7]), the “Does the Electrolyte Salt Have Suitable Taste (TAS)?” value was “Yes”. Besides, in data set [3], the “Does the Electrolyte Salt have Suitable Shelf Stability?” value is on record as “Yes”.

As for `[Cl-].[Na+]` [Sodium Chloride, sodium chloride], the “Does the Electrolyte Salt have Suitable Compatibility (CMP)?” value in data set [1] was “Yes”. For the same molecule, in data set [1] (listed as sodium chloride), the “Does the Electrolyte Salt have Suitable Compatibility (CMP)?” value is “passed”. Also, the “taste of sweetened, potassium-enriched water with sodium chloride” value in data set [4] (HPS 1300 mg/L, potassium 200 mg/L, dietary sodium level of 150 grams per liter (so in the source)) was “thick and only mildly salty”. The “taste of sweetened, potassium-enhanced water with sodium chloride” value in data set [4] (HPS 1300 mg/L, potassium 200 mg/L, sodium level of 600 mg/L) was “unacceptably salty”. In data set [4], the “improvement in sugar-like flavor” value is given as “about 5%” and the “optimal level for sugar-like flavor” value is listed as 40 mg/L. In data set [2] (setting [7]), the “Does the Electrolyte Salt Have Suitable Taste (TAS)?” value is “Yes”.

Turning to `O=C(CO)[C@@H](O)[C@H](O)[C@H](O)CO` [Fructose, fructose], the “flavor evaluation of carbohydrate candidates” value in data set [5] is “lose its sweetness at higher temperatures”.

As for `O=C([O-])[O-].[Ca+2]` [Calcium Carbonate, calcium carbonate], the “Does the Electrolyte Salt Have Suitable Taste (TAS)?” value in data set [2] (in vivo) is “NO, Develops chalky and dry flavor; also recorded: tasted chalky”.

`[Cl-].[Cl-].[Mg+2]` [Magnesium Chloride, magnesium chloride]: the “Does the Electrolyte Salt Have Suitable Taste (TAS)?” value in data set [2] (in vivo) was “Yes”.

Regarding `O=P([O-])(O)O.[Na+]` [Sodium Phosphate Monobasic, sodium phosphate monobasic], the “Does the Electrolyte Salt have Suitable Compatibility (CMP)?” value in data set [1] is “NO, Develops sour/chalky flavor”; in data set [1] (listed as sodium phosphate monobasic) it was “sour and chalky”. In addition, the “Does the Electrolyte Salt Have Suitable Taste (TAS)?” value in data set [2] (setting [7]) is “Yes”. In addition, the “Does the Electrolyte Salt have Suitable Shelf Stability?” value in data set [3] is reported as “Yes”.

Regarding `O=C([O-])O.[Na+]` [Sodium Bicarbonate, sodium bicarbonate], the “Does the Electrolyte Salt have Suitable Compatibility (CMP)?” value was “NO, Develops sour/chalky flavor” in data set [1]; “sour and chalky” in data set [1] (listed as sodium carbonate). In data set [2] (setting [7]), the “Does the Electrolyte Salt Have Suitable Taste (TAS)?” value was “Yes”.

As for `[Cl-].[K+]` [Potassium Chloride, potassium chloride], the “Does the Electrolyte Salt have Suitable Compatibility (CMP)?” value in data set [1] is on record as “Yes”; in data set [1] (listed as Potassium chloride), “passed”. The “improvement in sugar-like flavor” value in data set [4] is on record as “about 10%”. The “optimal level for sugar-like flavor” value in data set [4] is recorded as 200 mg/L. For the same molecule, the “Does the Electrolyte Salt Have Suitable Taste (TAS)?” value in data set [2] (setting [7]) is listed as “Yes”. Besides, the “Does the Electrolyte Salt Have Suitable Solubility?” value in data set [6] is recorded as “Yes”. Moreover, the “Does the Electrolyte Salt have Suitable Shelf Stability?” value in data set [3] is listed as “Yes”.

Consider `OC[C@@H](O)[C@@H](O)CO` [Erythritol, erythritol], for which the “flavor evaluation of carbohydrate candidates” value in data set [5] is listed as “drying sensation on the tongue or cooling sensation on the throat”.

For the molecule `O=S(=O)([O-])[O-].[Mg+2]` [Magnesium Sulfate, magnesium sulfate], in data set [2] (in vivo), the “Does the Electrolyte Salt Have Suitable Taste (TAS)?” value is “NO, Develops sour and dry flavor; also recorded: tasted sour”.

As to `[Ca+2].[Cl-].[Cl-]` [Calcium Chloride, calcium chloride], in data set [2] (in vivo), the “Does the Electrolyte Salt Have Suitable Taste (TAS)?” value is reported as “Yes”.

The values are drawn from patent US20190350240A1, “Electrolyte-Enhanced Sweetener and Consumable Products Obtained” (priority 2018, published 2019).
